Experimental data taken from patent US20260125426A1, “CYCLIC CELL-PENETRATING PEPTIDES AND USES THEREOF” (Ohio State Innovation Foundation, priority 2022, published 2026).
Where “and” joins values, the source holds several entries; their conditions need not be identical. Identical values can stand only once. *1 amine or outer side, *2 acyl side, *3 side chain or, on linkers, in order; H or OH if unused. Bridges are numbered along the chain shown (N, C = ends). Bi = bismuth bicyclization of the Cys thiols (peptides reacted with BiBr3), [Bi]([*:1])([*:2])[*:3]; Lys(NF) = lysine with naphthofluorescein (NF) attached to its side chain; Lys(dye) = not defined here; AEEA = NCCOCCOCC(=O)O

What was measured:
HeLa cells [1] = assay: Flow cytometry of HeLa cells, cytosolic entry of NF-labeled peptides; assay type: cell-based; conditions: for MFI^NF (Cytosolic Entry) / cytosolic entry efficiency in the presence of 10% FBS: 2 h, 37° C.; for MFI^NF (Cytosolic Entry): relative to CPP12 (100%); for cytosolic entry efficiency in the presence of 10% FBS: relative to CPP12
Experimental: (§1) Flow cytometry. HeLa cells were cultured in 12-well plates (1.5×10^5 cells/well) overnight. The following day, cells were incubated with 5 μM fluorescently labeled peptide for 2 h in DMEM supplemented with 1% FBS and 1% antibiotic solution. DMSO was used as a negative control. After incubation, cells were detached from plate with 350 μL of 0.25% Trypsin-EDTA solution, diluted with Dulbecco's phosphate buffered saline (DPBS), and pelleted at 300 g for 5 min. Cells were washed twice with DPBS, resuspended in DPBS, and analyzed on a BD FACS LSR II flow cytometer.
(§2) To evaluate their cell entry efficiencies, the BCPs and pBCPs were labeled with tetramethylrhodamine (TMR) or naphthofluorescein (NF) on a C-terminal lysine residue (FIGS. 2A, 2B, and 4). […] The labeled peptides were purified again by reversed-phase HPLC and their authenticity was confirmed by high-resolution mass spectrometry.
(§3) HeLa cells were treated with 5 μM dye-labeled BCPs (or pBCPs), CPP12, Tat, or DMSO (equal volume) for 2 h at 37° C., washed to remove any peptides in the medium, and analyzed by flow cytometry. The mean fluorescence intensity (MFI) value of TMR (which is pH insensitive) reflects the total amount of CPP inside the HeLa cells (total cellular uptake). On the other hand, NF is a pH sensitive dye, having an apparent pKa of 7.8. NF is unprotonated and fluorescent inside the neutral environment of the cytosol (and nucleus) but is nearly completely protonated and nonfluorescent in the acidic environments of endosomes and lysosomes. Thus, the MFI value of NF provides a convenient estimate of the peptides that have reached the cytosol.
Note that cell entry assays were performed by treating HeLa cell with 2 μM naphthofluorescein (NF)-labeled peptide for 2 h at 37° C. Under this condition, the BCPs enter the cell almost exclusively by endocytosis and endosomal escape. A small fraction of the CPP12^NF-treated cells (˜10%) underwent direct translocation of CPP12^NF; this fraction of highly fluorescent cells was not included in the data analysis. The cellular entry of pBCP427-4 was confirmed by live-cell confocal microscopy (FIG. 6).
BCP16a, BCP16b, and pBCP427-4a were labeled with NF and their cytosolic entry efficiencies were assessed by flow cytometry analysis of HeLa cells after treatment with 2 μM peptide at 37° C. for 2 h. […] CPP12 was previously shown to be highly sensitive to serum proteins (Buyanova, M., et al., (2022). Discovery of a Cyclic Cell-Penetrating Peptide with Improved Endosomal Escape and Cytosolic Delivery Efficiency. Molecular pharmaceuties, 19 (5). 1378-1388).

HeLa cells [2] = assay: Flow cytometry of HeLa cells, total cellular uptake of TMR-labeled peptides; assay type: cell-based; conditions: 5 μM TMR-labeled peptide, 2 h, 37° C., relative to CPP12 (100%)
Experimental: as §1, §2, §3

[3] = 2 μM NF-labeled peptide, 1% FBS

For HS-CH2-CO-rRrRCΦφC [BCP14], the “MFI^NF (Cytosolic Entry)” value (HeLa cells [1]; [3]) was 86 ± 2%.
In the case of “CFFRRRCRAC (Ac-CFFRRRCRAC-{AEEA-Lys(dye)-NH2}; linker 1-7-10 via Bi (inferred); reading uncertain) [pBCP16]”, the “MFI^NF (Cytosolic Entry)” value (HeLa cells [1]; 5 μM NF-labeled peptide) is reported as 15 ± 1%.
For “CYYRRCRAC (Ac-CYYRRCRAC-{AEEA-Lys(dye)-NH2}; linker 1-6-9 via Bi (inferred); reading uncertain) [pBCP15]”, the “MFI^NF (Cytosolic Entry)” value (HeLa cells [1]; 5 μM NF-labeled peptide) was 16 ± 3%.
In the case of “CWYRRCRAC (Ac-CWYRRCRAC-{AEEA-Lys(dye)-NH2}; linker 1-6-9 via Bi (inferred); reading uncertain) [pBCP4]”, the “MFI^NF (Cytosolic Entry)” value (HeLa cells [1]; 5 μM NF-labeled peptide) is reported as 10 ± 4% and the “MFI^TMR (Total Cellular Uptake)” value (HeLa cells [2]) is reported as 11 ± 1%.
With “Ac-CWSNWFCFQRRCR (Ac-CWSNWFCFQRRCR-{AEEA-Lys(NF)-NH2}; linker 1-7-12 via Bi (inferred)) [pBCP427-3]” the “MFI^NF (Cytosolic Entry)” value (HeLa cells [1]; [3]) was 101 ± 3%.
For “Ac-CWSNWFCQRRC (Ac-CWSNWFCQRRC-{AEEA-Lys(NF)-NH2}; linker 1-7-11 via Bi (inferred)) [pBCP427-6]”, the “MFI^NF (Cytosolic Entry)” value (HeLa cells [1]; [3]) was 65 ± 1%.
In the case of `CC(=O)N[C@@H](C)C(=O)N[C@@H](Cc1c[nH]c2ccccc12)C(=O)N[C@@H](CO)C(=O)N[C@@H](CC(N)=O)C(=O)N[C@@H](Cc1c[nH]c2ccccc12)C(=O)N[C@@H](Cc1ccccc1)C(=O)N[C@@H](C)C(=O)N[C@@H](Cc1ccccc1)C(=O)N[C@@H](CCC(N)=O)C(=O)N[C@@H](CCCNC(=N)N)C(=O)N[C@@H](CCCNC(=N)N)C(=O)N[C@@H](C)C(=O)NCCOCCOCC(=O)N[C@@H](CCCCNC(=O)c1ccc2c(c1)C(=O)OC21c2ccc3cc(O)ccc3c2Oc2c1ccc1cc(O)ccc21)C(N)=O` [pBCP427-4Ala], the “MFI^NF (Cytosolic Entry)” value (HeLa cells [1]; [3]) is reported as 18% and 18 ± 2%.
For “Ac-CWSNWCFQRRC (Ac-CWSNWCFQRRC-{AEEA-Lys(NF)-NH2}; linker 1-6-11 via Bi (inferred)) [pBCP427-5]”, the “MFI^NF (Cytosolic Entry)” value (HeLa cells [1]; [3]) was 76 ± 1%.
“CARCRRYWC (Ac-CARCRRYWC-{AEEA-Lys(dye)-NH2}; linker 1-4-9 via Bi (inferred); reading uncertain) [pBCP5]” was tested, and the “MFI^TMR (Total Cellular Uptake)” value (HeLa cells [2]) was 9.2%.
In the case of HS-CH2-CO-rRrRCφ(Bta)φC [BCP16b], the “MFI^NF (Cytosolic Entry)” value (HeLa cells [1]; [3]) is reported as 98% and 98 ± 1% and the “cytosolic entry efficiency in the presence of 10% FBS” value (HeLa cells [1]; 2 μM NF-labeled peptide) is reported as 169%.
Ac-CFΦRRCRRC [BCP3] was tested, and the “MFI^TMR (Total Cellular Uptake)” value (HeLa cells [2]) was 13 ± 2%.
With “CRRRWYWCAAC (Ac-CRRRWYWCAAC-{AEEA-Lys(dye)-NH2}; linker 1-8-11 via Bi (inferred); reading uncertain) [pBCP8]” the “MFI^TMR (Total Cellular Uptake)” value (HeLa cells [2]) was 8.4%.
In the case of “CFFFRRRCRAC (Ac-CFFFRRRCRAC-{AEEA-Lys(dye)-NH2}; linker 1-8-11 via Bi (inferred); reading uncertain) [pBCP17]”, the “MFI^NF (Cytosolic Entry)” value (HeLa cells [1]; 5 μM NF-labeled peptide) is reported as 15 ± 1%.
With “CWYRRRCRAC (Ac-CWYRRRCRAC-{AEEA-Lys(dye)-NH2}; linker 1-7-10 via Bi (inferred); reading uncertain) [pBCP9]” the “MFI^NF (Cytosolic Entry)” value (HeLa cells [1]; 5 μM NF-labeled peptide) was 12 ± 4%.
In the case of “CWSNWFCFQRRCRRFA (Ac-CWSNWFCFQRRCRRFA-{AEEA-Lys(dye)-NH2}; linker 1-7-12 via Bi (inferred); reading uncertain) [pBCP427]”, the “MFI^NF (Cytosolic Entry)” value (HeLa cells [1]; [3]) is reported as 131 ± 1% and the “MFI^NF (Cytosolic Entry)” value (HeLa cells [1]; 5 μM NF-labeled peptide) is reported as 41% and 41 ± 5%.
With “CFWRCRRC (Ac-CFWRCRRC-{AEEA-Lys(dye)-NH2}; linker 1-5-8 via Bi (inferred); reading uncertain) [pBCP6]” the “MFI^TMR (Total Cellular Uptake)” value (HeLa cells [2]) was 9.0 ± 0.7%.
Ac-CFΦRRCrrC [BCP8] was tested, and the “MFI^NF (Cytosolic Entry)” value (HeLa cells [1]; 5 μM NF-labeled peptide) was 38 ± 1%.
For Ac-CrRrRCΦfC [BCP4], the “MFI^NF (Cytosolic Entry)” value (HeLa cells [1]; [3]) was 51 ± 16% and the “MFI^NF (Cytosolic Entry)” value (HeLa cells [1]; 5 μM NF-labeled peptide) was 51 ± 16%.
In the case of Ac-CRRRφCF(dNle)QWC [BCP9A5-2], the “MFI^NF (Cytosolic Entry)” value (HeLa cells [1]; [3]) is reported as 43 ± 2%.
With “CARCRRRWYWC (Ac-CARCRRRWYWC-{AEEA-Lys(dye)-NH2}; linker 1-4-11 via Bi (inferred); reading uncertain) [pBCP3]” the “MFI^TMR (Total Cellular Uptake)” value (HeLa cells [2]) was 3%.
For “Ac-CWSNWFCFQRRCRRF (Ac-CWSNWFCFQRRCRRF-{AEEA-Lys(NF)-NH2}; linker 1-7-12 via Bi (inferred)) [pBCP427-1]”, the “MFI^NF (Cytosolic Entry)” value (HeLa cells [1]; [3]) was 94 ± 22%.
“CWYWRRCRAC (Ac-CWYWRRCRAC-{AEEA-Lys(dye)-NH2}; linker 1-7-10 via Bi (inferred); reading uncertain) [pBCP10]” was tested, and the “cytosolic entry, fold less active than CPP12” value (HeLa cells [1]; 5 μM) was 6 fold, the “cytosolic entry, fold more active than Tat” value (HeLa cells [1]; 5 μM) was 5 fold and the “MFI^NF (Cytosolic Entry)” value (HeLa cells [1]; 5 μM NF-labeled peptide) was 17% and 17 ± 2%.
In the case of “CRRRRCWYWC (Ac-CRRRRCWYWC-{AEEA-Lys(dye)-NH2}; linker 1-6-10 via Bi (inferred); reading uncertain) [pBCP1]”, the “MFI^NF (Cytosolic Entry)” value (HeLa cells [1]; 5 μM NF-labeled peptide) is reported as 12 ± 4% and the “MFI^TMR (Total Cellular Uptake)” value (HeLa cells [2]) is reported as 9.3 ± 1.9%.
In the case of HS-CH2-CO-rRrRC(Bta)φC [BCP15], the “MFI^NF (Cytosolic Entry)” value (HeLa cells [1]; [3]) is reported as 108 ± 4%.
In the case of “CRRCRWFC (Ac-CRRCRWFC-{AEEA-Lys(dye)-NH2}; linker 1-4-8 via Bi (inferred); reading uncertain) [pBCP7]”, the “MFI^TMR (Total Cellular Uptake)” value (HeLa cells [2]) is reported as 10 ± 0.1%.
“CWYRCRRC (Ac-CWYRCRRC-{AEEA-Lys(dye)-NH2}; linker 1-5-8 via Bi (inferred); reading uncertain) [pBCP13]” was tested, and the “MFI^NF (Cytosolic Entry)” value (HeLa cells [1]; 5 μM NF-labeled peptide) was 11 ± 1%.
HS-CH2-CO-φSNφFCfQrRCRrFa [BCP427-1] was tested, and the “MFI^NF (Cytosolic Entry)” value (HeLa cells [1]; [3]) was 84 ± 2%.
With “Ac-CWSNWFCFQRRCRR (Ac-CWSNWFCFQRRCRR-{AEEA-Lys(NF)-NH2}; linker 1-7-12 via Bi (inferred)) [pBCP427-2]” the “MFI^NF (Cytosolic Entry)” value (HeLa cells [1]; [3]) was 45 ± 1%.
In the case of HS-CH2-CO-rRrRcΦ(Bta)φC [BCP16a], the “MFI^NF (Cytosolic Entry)” value (HeLa cells [1]; [3]) is reported as 156% and 156 ± 4% and the “cytosolic entry efficiency in the presence of 10% FBS” value (HeLa cells [1]; 2 μM NF-labeled peptide) is reported as 821%.
With Ac-CFΦRRRRCAAAC [BCP11] the “MFI^NF (Cytosolic Entry)” value (HeLa cells [1]; 5 μM NF-labeled peptide) was 13%.
In the case of HS-CH2-CO-φSNφFCfQrRC [BCP427-2], the “MFI^NF (Cytosolic Entry)” value (HeLa cells [1]; [3]) is reported as 118 ± 4%.
“AWYRRARAA [pBCP4a, linear variant of pBCP4, three cysteine residues replaced with Ala]” was tested, and the “MFI^NF (Cytosolic Entry)” value (HeLa cells [1]; 5 μM NF-labeled peptide) was 5.4% and the “cytosolic entry, fold less active than pBCP4” value (HeLa cells [1]; 5 μM, linear Ala variant vs cyclized peptide) was roughly 2 fold.
In the case of Ac-CFΦRrRCAAC [BCP13], the “MFI^NF (Cytosolic Entry)” value (HeLa cells [1]; 5 μM NF-labeled peptide) is reported as 30 ± 3%.
With “CWYRRRCAC (Ac-CWYRRRCAC-{AEEA-Lys(dye)-NH2}; linker 1-7-9 via Bi (inferred); reading uncertain) [pBCP12]” the “MFI^NF (Cytosolic Entry)” value (HeLa cells [1]; 5 μM NF-labeled peptide) was 12 ± 1%.
For Ac-CrRrRCΦfFC [BCP5], the “MFI^NF (Cytosolic Entry)” value (HeLa cells [1]; 5 μM NF-labeled peptide) was 45 ± 1%.
“CWYCRRRC (Ac-CWYCRRRC-{AEEA-Lys(dye)-NH2}; linker 1-4-8 via Bi (inferred); reading uncertain) [pBCP11]” was tested, and the “MFI^NF (Cytosolic Entry)” value (HeLa cells [1]; 5 μM NF-labeled peptide) was 14 ± 1%.
With Ac-CFΦCRRRRC [BCP1] the “MFI^TMR (Total Cellular Uptake)” value (HeLa cells [2]) was 12 ± 2%.
In the case of Ac-CfΦRrCRrC [BCP10], the “MFI^NF (Cytosolic Entry)” value (HeLa cells [1]; 5 μM NF-labeled peptide) is reported as 56 ± 32%.
With Ac-CRRRφRFCQWC [BCP9A5-1] the “MFI^NF (Cytosolic Entry)” value (HeLa cells [1]; [3]) was 30 ± 1%.
For Ac-CRRRRCΦFC [BCP2], the “MFI^TMR (Total Cellular Uptake)” value (HeLa cells [2]) was 15 ± 4%.
In the case of Ac-CΣΦRRCrrC [BCP9], the “MFI^NF (Cytosolic Entry)” value (HeLa cells [1]; 5 μM NF-labeled peptide) is reported as 43%.
In the case of “Ac-CWSQWFCFQRRC (Ac-CWSQWFCFQRRC-{AEEA-Lys(NF)-NH2}; linker 1-7-12 via Bi (inferred)) [pBCP427-7]”, the “MFI^NF (Cytosolic Entry)” value (HeLa cells [1]; [3]) is reported as 69 ± 3%.
